Columns and labels:
[1] = system: U937 human leukemia cells; experiment: morphological assessment of apoptosis (Wright and Giemsa-stained cytospin); format: cell-based
Excerpt: Cell culture. The myelomonocytic leukemia cell line U937 was derived from a patient with histiocytic lymphoma and was obtained from American Type Culture Collection. The HL-60 cell line was derived from a patient with acute promyelocytic leukemia as previously described [Grant et al. 1992]. U937 and HL-60 cells were maintained in logarithmic growth phase by culturing in suspension in phenol red-free RPMI-1640 (Life Technologies, Inc., Grand Island, N.Y.) and 10% (v/v) fetal calf serum (Hyclone, Logan, Utah), in a humidified atmosphere (95% air/5% CO2) at 37° C. To obtain antisense-expressing cell lines, U937 cells were transfected by electroporation with a pREP4 vector (Invitrogen; Carlsbad, Calif.) or the pREP4 vector containing the p21^WAF1/CIP1 coding region in an antisense orientation as previously described [Wang et al. 1999]. […]
Morphological assessment of apoptosis. U937 cells were evaluated for apoptosis by morphological assessment of Wright and Giemsa-stained cytospin preparations. At designated times, cells were transferred to slides by cytocentrifugation, fixed, stained, and evaluated under light microscopy for treatment-induced apoptosis. […] Five or more randomly selected fields, encompassing a total≧500 cells/slide, were evaluated to determine the percentage of apoptotic cells for each treatment condition.

pRb/E2F complexes = experiment: pRb immunoprecipitation and EMSA of E2F in U937 cells; format: cell-based, human; details: 8 h exposure; 10 nM PMA, 100 nM FP, 1 mM SB
Procedure: Electrophoretic Mobility Shift Assay (EMSA) and Immunoprecipitation (IP). Whole-cell extracts were prepared as previously described [Bagchi et al. 1990] and EMSA following IP was performed as previously reported [Chellapan et al. 1991]. Whole cell extracts (150 μg) were combined with 4 μl of anti-RB monoclonal antibody (Calbiochem) for the IP. Immunoprecipitated proteins were recovered on Protein A sepharose beads and dissociated by treatment with deoxycholate. The presence of E2F in the IP was monitored by EMSA as previously noted [Yee et al. 1987].
Immunoprecipitation and EMSA. Whole-cell extracts were prepared by hypotonic shock followed by salt extraction, as described previously (Chellappan et al., 1991). Portions (50 to 200 μg) of whole-cell extracts were treated with 5 μl of the appropriate primary antibody in a volume of 100 μl at 4° C. for 1 h. Then, 3 mg of protein A-Sepharose or protein G-Sepharose in a 100-μl volume was added and incubated for an additional hour. The binding was performed in a buffer containing 20 mM HEPES (pH 7.9), 40 mM KCl, 1 mM MgCl2, 0.1 mM EGTA, 0.1 mM EDTA, 0.1 mM DTT, 0.1 mM NaF, 0.1 mM Na3VO4, 0.5% NP-40, and 3 mg of BSA per ml. The beads were washed six times with 600 μl of the same buffer and boiled in 20 μl of SDS sample buffer. […] The gel was dried, and the bands were detected by autoradiography.

histones H3 and H4 = experiment: acetylated histone Western (HDAC assay) in U937 cells; format: cell-based, human; details: 1 mM SB, 100 nM FP
Procedure: Histone Deacetylase (HDAC) Assay. Acid extraction of proteins from treated cells and detection of acetylated histones H3 and H4 by Western blot analysis was performed per the manufacturer's instructions (Upstate Biotechnology). 10 μg of extract was loaded per lane and separated on pre-cast 4-20% Biorad Gradient Gels.

**Q.** For CN1CC[C@H](c2c(O)cc(O)c3c(=O)cc(-c4ccccc4Cl)oc23)[C@H](O)C1 [FP, Flavopiridol], which “percentage of apoptotic cells” value ([1]; FP concentrations ≦100 nM, regardless of treatment interval (6-24 h)) is on record?
**A.** ≤ 10%

**Q.** What about the induction of apoptosis ([1]; FP concentrations ≧200 nM, chronic exposures (12 or 24 h)) of the same molecule?
**A.** susceptible to apoptosis

**Q.** And the “E2F binding to labeled probe after pRb immunoprecipitation” value (pRb/E2F complexes)?
**A.** clear reduction in E2F binding

**Q.** How did the “acetylation of histones H3 and H4” value (histones H3 and H4) turn out when CCCC(=O)[O-].[Na+] [SB, sodium butyrate] was run?
**A.** Acetylation of H3 and H4 was observed
